# Test results as given in patent US20260146062A1, “COMPOUNDS AND METHODS FOR TREATING DISEASES CAUSED BY VIRUSES AND BACTERIA” (The Trustees of Indiana University, priority 2022, published 2026).
# System: SARS-CoV2 virus
# Assay: Inhibition of Viral Replication (plaque count)
# Assay type: cell-based
# Details: with increased concentration of inhibitor
compound,measurement,value
CC(C)C[C@H](NC(=O)c1cc2ccccc2[nH]1)C(=O)NC(C=O)Cc1ccc(F)cc1 (stereo partly shown) [Compound 112],inhibition ability (FIG. 6),increased inhibition ability of Compound No. 112 with increased concentration
